Data from PMC8149590, “Biochemical Characterization of a Novel Bacterial Laccase and Improvement of Its Efficiency by Directed Evolution on Dye Degradation” (Frontiers in Microbiology, 2021).

Test system: T1, rlac1338
T1 construct: gene lac1338; 1,338 bp gene (about 445 residues), codon-optimised, in pET-32a(+), E. coli BL21(DE3); His-tag fusion (18 kD vector tag), ~68 kD by SDS-PAGE
Experiment: initial rates by OD405, Lineweaver-Burk
Format: biochemical, uncultured bacterium
Settings: ± sign lost in table text
Excerpt: initial rates by OD405, Lineweaver-Burk on rlac1338

[1] = mutant lac2-9, optimal pH 6.5 and 60°C, printed base change T698A falls in codon 233, not 232

Structure (SMILES)	Km [1] [µM]	Km (optimal pH 6.0 and 55°C) [µM]
COc1ccccc1O [Guaiacol]	4300	4900
CCn1c(=NN=c2sc3cc(S(=O)(=O)O)ccc3n2CC)sc2cc(S(=O)(=O)O)ccc21 [ABTS, 2,2-azide-bis (3-ethylbenzothiazole-6-sulfonic acid)]	76 ± 1.8	210 ± 3.3
Oc1cccc2ccccc12 [1-naphthol]	6040	5600
COc1cccc(OC)c1O [2,6-DMP]	560 ± 3.7	654 ± 2.1
Oc1ccccc1O [Catecho]	570 ± 2.9	507 ± 2.5
